Test results from ChEMBL document CHEMBL5131448, “Tumor-microenvironmental-response Bi-functional molecules for efficient imaging and anti-tumor activity therapy” (Eur J Med Chem, 2022).
Active and inactive are the calls of the source. The calls are words filed in the database; no cut-off is given here.

Key:
[1] = system: EA.hy 926; assay: Effect on cell apoptosis in human EA.hy 926 cells assessed as promotion of apoptosis at 0.1 to 40 uM measured after 72 hrs by Annexin V-FITC/propidium iodide staining based flow cytometry; format: functional; conditions: dose 0.1-40 µM
[2] = system: HEK293; assay: Cytotoxicity against human HEK293 cells measured after 72 hrs by MTT assay; format: toxicity, cell-based; conditions: hek293, 72 h
[3] = system: EA.hy 926; assay: Induction of cell cycle arrest in human EA.hy 926 cells assessed as accumulation of cells at G1-pahse at 0.1 to 40 uM measured after 72 hrs by propidium iodide staining method; format: functional, cell-based; conditions: dose 0.1-40 µM
[4] = system: EA.hy 926; assay: Antiproliferative activity against human EA.hy 926 cells after 72 hrs by MTT assay; format: functional, cell-based; conditions: EA.hy 926, 72 h
[5] = system: MDA-MB-231; assay: Antiproliferative activity against human MDA-MB-231 cells after 72 hrs by MTT assay; format: functional, cell-based; conditions: MDA-MB-231, 72 h
[6] = system: HeLa; assay: Antiproliferative activity against human HeLa cells after 72 hrs by MTT assay; format: functional, cell-based
[7] = system: A549; assay: Antiproliferative activity against human A549 cells after 72 hrs by MTT assay; format: functional, cell-based; conditions: A549, 72 h

IC50 [5] [µM] | IC50 [6] [µM] | IC50 [7] [µM] | SMILES | Activity [1] | Activity [2] | Activity [3] | IC50 [4] [µM]
– | – | – | COc1ccc(-c2ccc(Cn3cc(-c4cccc(N)c4)nn3)cc2)cn1 | Active | Non-Toxic | Active | –
85 | 128 | 22.1 | CCN(CC)c1ccc2c(-c3ccccc3C(=O)NCCCCNC(=O)CSSCC(=O)n3nc(N)c4c(-c5ccc(NC(=O)Nc6cc(C)ccc6F)cc5)cccc43)c3ccc(=[N+](CC)CC)cc-3oc2c1 | Active | Non-Toxic | Active | 0.03
35.9 | 15.8 | – | CCN(CC)c1ccc2c(-c3ccccc3C(=O)NCCCCNC(=O)CSSCC(=O)Nc3cccc(-c4cn(Cc5ccc(-c6ccc(OC)nc6)cc5)nn4)c3)c3ccc(=[N+](CC)CC)cc-3oc2c1 | Active | Non-Toxic | Active | 2.96
